Measurements published in patent US10780090B2, “Heteroaryl compounds useful as inhibitors of SUMO activating enzyme” (Millennium Pharmaceuticals, Inc., priority 2014, dated 2020).

Biological target: recombinant human SAE enzyme (Homo sapiens (Human), UniProt Q9UBT2)
Test: SAE HTRF enzyme assay
Format: biochemical
Conditions: for Percent Inhibition: Concentration 0.111 μM; for IC50: class symbols A/B/C
Outline: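 Sumoylation of Ubc9-GST by SAE was followed at low ATP (0.5 μM), pH 7.5, 24° C. for 105 min. Product was detected by HTRF with antibody pairs against Flag and GST tags.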

Chain of recombinant human SAE enzyme (Q9UBT2 whole entry): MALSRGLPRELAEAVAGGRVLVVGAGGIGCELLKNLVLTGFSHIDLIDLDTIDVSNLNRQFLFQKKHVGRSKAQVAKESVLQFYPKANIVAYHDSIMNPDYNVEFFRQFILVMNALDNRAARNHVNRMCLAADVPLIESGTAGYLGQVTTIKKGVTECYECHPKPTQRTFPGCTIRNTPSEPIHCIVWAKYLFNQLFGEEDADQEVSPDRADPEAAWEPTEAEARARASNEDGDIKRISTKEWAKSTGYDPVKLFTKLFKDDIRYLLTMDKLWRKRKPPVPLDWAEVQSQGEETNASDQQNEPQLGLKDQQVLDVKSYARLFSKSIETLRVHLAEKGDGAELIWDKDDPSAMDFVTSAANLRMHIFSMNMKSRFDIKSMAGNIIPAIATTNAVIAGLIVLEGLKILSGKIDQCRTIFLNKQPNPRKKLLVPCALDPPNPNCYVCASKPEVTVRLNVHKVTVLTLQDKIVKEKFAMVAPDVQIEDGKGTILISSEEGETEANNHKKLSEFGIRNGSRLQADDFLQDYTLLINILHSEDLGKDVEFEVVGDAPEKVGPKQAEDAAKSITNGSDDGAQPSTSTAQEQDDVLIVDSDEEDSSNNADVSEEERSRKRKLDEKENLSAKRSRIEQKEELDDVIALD
Chain of recombinant human SAE enzyme (Q9UBE0 whole entry partner): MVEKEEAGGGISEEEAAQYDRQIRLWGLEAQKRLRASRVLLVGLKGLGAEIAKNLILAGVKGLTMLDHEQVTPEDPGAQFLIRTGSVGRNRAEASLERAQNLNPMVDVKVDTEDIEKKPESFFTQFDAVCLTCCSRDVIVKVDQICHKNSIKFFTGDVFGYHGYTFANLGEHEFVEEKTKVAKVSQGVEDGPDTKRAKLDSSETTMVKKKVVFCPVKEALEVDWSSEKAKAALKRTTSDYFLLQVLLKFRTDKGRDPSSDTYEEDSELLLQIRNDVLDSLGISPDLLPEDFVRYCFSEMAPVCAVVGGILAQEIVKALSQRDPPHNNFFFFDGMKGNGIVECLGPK

Compound: Cc1sc(C(=O)c2cncnc2N[C@@H]2C[C@H](COS(N)(=O)=O)[C@@H](O)C2)cc1[S@+]([O-])c1cccc(Cl)c1 (single isomer, unassigned) [I-28b, [(1R,2S,4R)-4-{[5-({4-[(R)-(3-chlorophenyl)sulfinyl]-5-methyl-2-thienyl}carbonyl)pyrimidin-4-yl]amino}-2-hydroxycyclopentyl]methyl sulfamate or [(1R,2S,4R)-4-{[5-({4-[(S)-(3-chlorophenyl)sulfinyl]-5-methyl-2-thienyl}carbonyl)pyrimidin-4-yl]amino}-2-hydroxycyclopentyl]methyl sulfamate]
- Percent Inhibition: 100
- IC50: < 10 nM

Compound: NS(=O)(=O)OC[C@H]1C[C@@H](Nc2ncncc2C(=O)c2cc(C(O)c3cccc(Cl)n3)cs2)C[C@@H]1O (single isomer, unassigned) [I-29a, [(1R,2S,4R)-4-{[5-({4-[(S)-(6-chloropyridin-2-yl)(hydroxy)methyl]-2-thienyl}carbonyl)pyrimidin-4-yl]amino}-2-hydroxycyclopentyl]methyl sulfamate or [(1R,2S,4R)-4-{[5-({4-[(R)-(6-chloropyridin-2-yl)(hydroxy)methyl]-2-thienyl}carbonyl)pyrimidin-4-yl]amino}-2-hydroxycyclopentyl]methyl sulfamate]
- Percent Inhibition: 97
- IC50: < 10 nM

Compound: NS(=O)(=O)OC[C@H]1C[C@@H](Nc2ncncc2C(=O)c2cc(C(O)c3cccc(Cl)n3)cs2)C[C@@H]1O (single isomer, unassigned) [I-29b, [(1R,2S,4R)-4-{[5-({4-[(S)-(6-chloropyridin-2-yl)(hydroxy)methyl]-2-thienyl}carbonyl)pyrimidin-4-yl]amino}-2-hydroxycyclopentyl]methyl sulfamate or [(1R,2S,4R)-4-{[5-({4-[(R)-(6-chloropyridin-2-yl)(hydroxy)methyl]-2-thienyl}carbonyl)pyrimidin-4-yl]amino}-2-hydroxycyclopentyl]methyl sulfamate]
- Percent Inhibition: 99
- IC50: < 10 nM

Compound: C[C@](O)(c1cccc(Cl)c1)c1coc(C(=O)c2cncnc2N[C@@H]2C[C@H](COS(N)(=O)=O)[C@@H](O)C2)c1 (single isomer, unassigned) [I-30a, {(1R,2S,4R)-4-[(5-{4-[(1S)-1-(3-chlorophenyl)-1-hydroxyethyl]-2-furoyl}pyrimidin-4-yl)amino]-2-hydroxycyclopentyl}methyl sulfamate or {(1R,2S,4R)-4-[(5-{4-[(1R)-1-(3-chlorophenyl)-1-hydroxyethyl]-2-furoyl}pyrimidin-4-yl)amino]-2-hydroxycyclopentyl}methyl sulfamate]
- Percent Inhibition: 100
- IC50: < 10 nM

Compound: C[C@](O)(c1cccc(Cl)c1)c1coc(C(=O)c2cncnc2N[C@@H]2C[C@H](COS(N)(=O)=O)[C@@H](O)C2)c1 (single isomer, unassigned) [I-30b, {(1R,2S,4R)-4-[(5-{4-[(1S)-1-(3-chlorophenyl)-1-hydroxyethyl]-2-furoyl}pyrimidin-4-yl)amino]-2-hydroxycyclopentyl}methyl sulfamate or {(1R,2S,4R)-4-[(5-{4-[(1R)-1-(3-chlorophenyl)-1-hydroxyethyl]-2-furoyl}pyrimidin-4-yl)amino]-2-hydroxycyclopentyl}methyl sulfamate]
- Percent Inhibition: 88
- IC50: 10 to 100 nM

Compound: NS(=O)(=O)OC[C@H]1C[C@@H](Nc2ncncc2C(=O)c2cc([C@@]3(c4ccccc4)CCCO3)cs2)C[C@@H]1O (single isomer, unassigned) [I-32a, [(1R,2S,4R)-2-hydroxy-4-{[5-({4-[(2S)-2-phenyltetrahydrofuran-2-yl]-2-thienyl}carbonyl)pyrimidin-4-yl]amino}cyclopentyl]methyl sulfamate or [(1R,2S,4R)-2-hydroxy-4-{[5-({4-[(2R)-2-phenyltetrahydrofuran-2-yl]-2-thienyl}carbonyl)pyrimidin-4-yl]amino}cyclopentyl]methyl sulfamate]
- Percent Inhibition: 98
- IC50: < 10 nM

Compound: NS(=O)(=O)OC[C@H]1C[C@@H](Nc2ncncc2C(=O)c2cc([C@@]3(c4ccccc4)CCCO3)cs2)C[C@@H]1O (single isomer, unassigned) [I-32b, [(1R,2S,4R)-2-hydroxy-4-{[5-({4-[(2S)-2-phenyltetrahydrofuran-2-yl]-2-thienyl}carbonyl)pyrimidin-4-yl]amino}cyclopentyl]methyl sulfamate or [(1R,2S,4R)-2-hydroxy-4-{[5-({4-[(2R)-2-phenyltetrahydrofuran-2-yl]-2-thienyl}carbonyl)pyrimidin-4-yl]amino}cyclopentyl]methyl sulfamate]
- Percent Inhibition: 90
- IC50: 10 to 100 nM

Compound: N[C@H](c1cccc(Cl)c1)c1csc(C(=O)c2cncnc2N[C@@H]2C[C@H](COS(N)(=O)=O)[C@@H](O)C2)c1 (single isomer, unassigned) [I-36a, [(1R,2S,4R)-4-{[5-({4-[(R)-amino(3-chlorophenyl)methyl]-2-thienyl}carbonyl)pyrimidin-4-yl]amino}-2-hydroxycyclopentyl]methyl sulfamate or [(1R,2S,4R)-4-{[5-({4-[(S)-amino(3-chlorophenyl)methyl]-2-thienyl}carbonyl)pyrimidin-4-yl]amino}-2-hydroxycyclopentyl]methyl sulfamate]
- Percent Inhibition: 100
- IC50: < 10 nM

Compound: N[C@H](c1cccc(Cl)c1)c1csc(C(=O)c2cncnc2N[C@@H]2C[C@H](COS(N)(=O)=O)[C@@H](O)C2)c1 (single isomer, unassigned) [I-36b, [(1R,2S,4R)-4-{[5-({4-[(R)-amino(3-chlorophenyl)methyl]-2-thienyl}carbonyl)pyrimidin-4-yl]amino}-2-hydroxycyclopentyl]methyl sulfamate or [(1R,2S,4R)-4-{[5-({4-[(S)-amino(3-chlorophenyl)methyl]-2-thienyl}carbonyl)pyrimidin-4-yl]amino}-2-hydroxycyclopentyl]methyl sulfamate]
- Percent Inhibition: 99
- IC50: < 10 nM

Compound: NS(=O)(=O)OC[C@H]1C[C@@H](Nc2ncncc2C(=O)c2cc([C@@]3(c4cccc(Cl)c4)CCCN3)cs2)C[C@@H]1O (single isomer, unassigned) [I-38a, [(1R,2S,4R)-4-{[5-({4-[(2S)-2-(3-chlorophenyl)pyrrolidin-2-yl]-2-thienyl}carbonyl)pyrimidin-4-yl]amino}-2-hydroxycyclopentyl]methyl sulfamate or [(1R,2S,4R)-4-{[5-({4-[(2R)-2-(3-chlorophenyl)pyrrolidin-2-yl]-2-thienyl}carbonyl)pyrimidin-4-yl]amino}-2-hydroxycyclopentyl]methyl sulfamate]
- Percent Inhibition: 75
- IC50: 10 to 100 nM

Compound: NS(=O)(=O)OC[C@H]1C[C@@H](Nc2ncncc2C(=O)c2cc([C@@]3(c4cccc(Cl)c4)CCCN3)cs2)C[C@@H]1O (single isomer, unassigned) [I-38b, [(1R,2S,4R)-4-{[5-({4-[(2S)-2-(3-chlorophenyl)pyrrolidin-2-yl]-2-thienyl}carbonyl)pyrimidin-4-yl]amino}-2-hydroxycyclopentyl]methyl sulfamate or [(1R,2S,4R)-4-{[5-({4-[(2R)-2-(3-chlorophenyl)pyrrolidin-2-yl]-2-thienyl}carbonyl)pyrimidin-4-yl]amino}-2-hydroxycyclopentyl]methyl sulfamate]
- Percent Inhibition: 98
- IC50: < 10 nM

Compound: NS(=O)(=O)OC[C@H]1C[C@@H](Nc2ncncc2C(=O)c2cc(Cc3cccc(Cl)c3)c([C@@H]3CCCO3)s2)C[C@@H]1O (single isomer, unassigned) [I-41a, [(1R,2S,4R)-4-{[5-({4-(3-chlorobenzyl)-5-[(2S)-tetrahydrofuran-2-yl]-2-thienyl}carbonyl)pyrimidin-4-yl]amino}-2-hydroxycyclopentyl]methyl sulfamate or [(1R,2S,4R)-4-{[5-({4-(3-chlorobenzyl)-5-[(2R)-tetrahydrofuran-2-yl]-2-thienyl}carbonyl)pyrimidin-4-yl]amino}-2-hydroxycyclopentyl]methyl sulfamate]
- Percent Inhibition: 98
- IC50: < 10 nM

Compound: NS(=O)(=O)OC[C@H]1C[C@@H](Nc2ncncc2C(=O)c2cc(Cc3cccc(Cl)c3)c([C@@H]3CCCO3)s2)C[C@@H]1O (single isomer, unassigned) [I-41b, [(1R,2S,4R)-4-{[5-({4-(3-chlorobenzyl)-5-[(2S)-tetrahydrofuran-2-yl]-2-thienyl}carbonyl)pyrimidin-4-yl]amino}-2-hydroxycyclopentyl]methyl sulfamate or [(1R,2S,4R)-4-{[5-({4-(3-chlorobenzyl)-5-[(2R)-tetrahydrofuran-2-yl]-2-thienyl}carbonyl)pyrimidin-4-yl]amino}-2-hydroxycyclopentyl]methyl sulfamate]
- Percent Inhibition: 98
- IC50: < 10 nM

Compound: NS(=O)(=O)OC[C@H]1C[C@@H](Nc2ncncc2C(=O)c2cc([C@H](O)c3cccc(Cl)c3)co2)C[C@@H]1O (single isomer, unassigned) [I-42a, {(1R,2S,4R)-4-[(5-{4-[(R)-(3-chlorophenyl)(hydroxy)methyl]-2-furoyl}pyrimidin-4-yl)amino]-2-hydroxycyclopentyl}methyl sulfamate or {(1R,2S,4R)-4-[(5-{4-[(S)-(3-chlorophenyl)(hydroxy)methyl]-2-furoyl}pyrimidin-4-yl)amino]-2-hydroxycyclopentyl}methyl sulfamate]
- Percent Inhibition: 97
- IC50: < 10 nM

Compound: NS(=O)(=O)OC[C@H]1C[C@@H](Nc2ncncc2C(=O)c2cc([C@H](O)c3cccc(Cl)c3)co2)C[C@@H]1O (single isomer, unassigned) [I-42b, {(1R,2S,4R)-4-[(5-{4-[(R)-(3-chlorophenyl)(hydroxy)methyl]-2-furoyl}pyrimidin-4-yl)amino]-2-hydroxycyclopentyl}methyl sulfamate or {(1R,2S,4R)-4-[(5-{4-[(S)-(3-chlorophenyl)(hydroxy)methyl]-2-furoyl}pyrimidin-4-yl)amino]-2-hydroxycyclopentyl}methyl sulfamate]
- Percent Inhibition: 99
- IC50: < 10 nM
